In patent publication US20020019527A1 (priority 2000, published 2002):
Structures can show the parent of a compound that is named as a salt.

biological target: T1, Farnesyltransferase (FTase) (Bos taurus, UniProt P29702+P49355); assay: Farnesyltransferase inhibition (scintillation proximity assay, [3H]-FPP / biotin-K-ras peptide); assay type: biochemical, bovine; conditions: compound at 10^−6 M; bovine FTase, 37° C., 30 minutes
T1 construct: precipitation from a beef brain homogenate; from tissue; host or cells: bovine brain
T1 sequence (P49355 whole entry, one chain of several): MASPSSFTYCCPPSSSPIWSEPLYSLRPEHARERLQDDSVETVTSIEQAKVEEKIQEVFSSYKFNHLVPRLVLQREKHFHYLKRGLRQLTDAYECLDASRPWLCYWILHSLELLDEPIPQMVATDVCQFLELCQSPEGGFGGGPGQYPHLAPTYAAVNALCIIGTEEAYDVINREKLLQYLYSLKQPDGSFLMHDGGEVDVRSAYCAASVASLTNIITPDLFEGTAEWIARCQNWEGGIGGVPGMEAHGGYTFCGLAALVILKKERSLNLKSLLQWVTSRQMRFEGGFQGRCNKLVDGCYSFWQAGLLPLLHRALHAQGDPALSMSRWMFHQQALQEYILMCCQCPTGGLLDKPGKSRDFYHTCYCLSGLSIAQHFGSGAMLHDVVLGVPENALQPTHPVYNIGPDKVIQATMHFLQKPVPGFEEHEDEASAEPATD
Procedure: Farnesyltransferase (FTase) or geranylgeranyltransferase I (GGTase I) fractions were isolated from bovine brains and purified by a series of methods which separate FTase from GGTase I and GGTase I from GGTase II. The methods involved a partial purification of all three enzymes by precipitation from a beef brain homogenate with 30% to 50% saturated […] followed by chromatography on DEAE Sepharose. […] The catalytic purity of each enzyme was assayed separately with substrate acceptor proteins specific for that enzyme. After quickly freezing in liquid nitrogen, the various prenyl transferases were stored at −80° C.
The quenched reactions stood for 1 hour before analysis in a Packard TopCount scintillation counter. Purified compounds were dissolved in 100% ethanol and diluted 10-fold into the assay.

Row | Structure (SMILES) | inhibition at 1 µM [%] | % Inhibition at 10^−6M [%]
1 | Cn1cncc1C(NCc1ccc(Cl)cc1)c1ccc(C#N)c(-c2cccc3ccccc23)c1 (stereo not drawn) [Example 42, 4-(((4-chlorobenzyl)amino)(1-methyl-1H-imidazol-5-yl)methyl)-2-(1-naphthyl)benzonitrile] | 100 | –
2 | Cn1cncc1C(OCc1ccc(C#N)cc1)c1ccc(C#N)c(-c2cccc3ncccc23)c1 (stereo not drawn) [Example 43, 4-(((4-cyanobenzyl)oxy)(1-methyl-1H-imidazol-5-yl)methyl)-2-(5-quinolinyl)benzonitrile dihydrochloride] | 100 | –
3 | Cn1cncc1C(OCc1ccc(C#N)cc1)c1ccc(C#N)c(-c2cccc3cnccc23)c1 (stereo not drawn) [Example 44, 4-(((4-cyanobenzyl)oxy)(1-methyl-1H-imidazol-5-yl)methyl)-2-(5-isoquinolinyl)benzonitrile] | 100 | –
4 | N#Cc1ccc(CN(Cc2ccc(C#N)c(-c3cccc4ccccc34)c2)Cc2cnc[nH]2)cc1 [Example 45, 4-(((4-cyanobenzyl)(1H-imidazol-5-ylmethyl)amino)methyl)-2-(1-naphthyl)benzonitrile dihydrochloride] | 100 | –
5 | N#Cc1ccc(COC(c2ccc(C#N)c(-c3cccc4ccccc34)c2)c2cnc[nH]2)cc1 (stereo not drawn) [Example 46, 4-(((4-cyanobenzyl)oxy)(1H-imidazol-5-yl)methyl)-2-(1-naphthyl)benzonitrile hydrochloride] | 100 | –
6 | Cn1cncc1C(NCc1ccc(Cl)c(Cl)c1)c1ccc(C#N)c(-c2cccc3ccccc23)c1 (stereo not drawn) [Example 47, 4-(((3,4-dichlorobenzyl)amino)(1-methyl-1H-imidazol-5-yl)methyl)-2-(1-naphthyl)benzonitrile] | 100 | –
7 | CNC(=O)c1ccc(CNC(c2ccc(C#N)c(-c3cccc4ccccc34)c2)c2cncn2C)cc1 (stereo not drawn) [Example 48, 4-((((4-cyano-3-(1-naphthyl)phenyl)(1-methyl-1H-imidazol-5-yl)methyl)amino)methyl)-N-methylbenzamide dihydrochloride] | 100 | –
8 | N#Cc1ccc(COC(c2ccc(C#N)c(-c3cccc4ccccc34)c2)c2cn(C(c3ccccc3)(c3ccccc3)c3ccccc3)cn2)cc1 (stereo not drawn) [Example 49, 4-(((4-cyanobenzyl)oxy)(1-trityl-1H-imidazol-4-yl)methyl)-2-(1-naphthyl)benzonitrile] | 62 | –
9 | CCOC(=O)N1CCC(NC(c2ccc(C#N)c(-c3cccc4ccccc34)c2)c2cncn2C)CC1 (stereo not drawn) [Example 50, ethyl 4-(((4-cyano-3-(1-naphthyl)phenyl)(1-methyl-1H-imidazol-5-yl)methyl)amino)-1-piperidinecarboxylate dihydrochloride] | 100 | –
10 | Cn1cncc1C(NCc1ccc(C#N)cn1)c1ccc(C#N)c(-c2cccc3ccccc23)c1 (stereo not drawn) [Example 51, 6-((((4-cyano-3-(1-naphthyl)phenyl)(1-methyl-1H-imidazol-5-yl)methyl)amino)methyl)nicotinonitrile trihydrochloride] | 100 | –
11 | COC(=O)c1ccc(CNC(c2ccc(C#N)c(-c3cccc4ccccc34)c2)c2cncn2C)nc1 (stereo not drawn) [Example 52, methyl 6-((((4-cyano-3-(1-naphthyl)phenyl)(1-methyl-1H-imidazol-5-yl)methyl)amino)methyl)nicotinate trihydrochloride] | 100 | –
12 | CC(=O)Nc1ccc(CNC(c2ccc(C#N)c(-c3cccc4ccccc34)c2)c2cncn2C)cc1 (stereo not drawn) [Example 53, N-(4-((((4-cyano-3-(1-naphthyl)phenyl)(1-methyl-1H-imidazol-5-yl)methyl)amino)methyl)phenyl)acetamide dihydrochloride] | 100 | –
13 | Cn1cncc1C(NC1CCN(C(=O)OCc2ccccc2)CC1)c1ccc(C#N)c(-c2cccc3ccccc23)c1 (stereo not drawn) [Example 54, benzyl 4-(((4-cyano-3-(1-naphthyl)phenyl)(1-methyl-1H-imidazol-5-yl)methyl)amino)-1-piperidinecarboxylate dihydrochloride] | 100 | –
14 | Cn1cncc1C(NC1CCN(Cc2ccccc2)CC1)c1ccc(C#N)c(-c2cccc3ccccc23)c1 (stereo not drawn) [Example 55, 4-(((1-benzyl-4-piperidinyl)amino)(1-methyl-1H-imidazol-5-yl)methyl)-2-(1-naphthyl)benzonitrile trihydrochloride] | 100 | –
15 | Cn1cncc1C(NC1CCN(C(=O)OC(C)(C)C)CC1)c1ccc(C#N)c(-c2cccc3ccccc23)c1 (stereo not drawn) [Example 56, tert-butyl 4-(((4-cyano-3-(1-naphthyl)phenyl)(1-methyl-1H-imidazol-5-yl)methyl)amino)-1-piperidinecarboxylate] | 100 | –
16 | Cn1cncc1C(NC1CCN(C(=O)c2ccccc2)CC1)c1ccc(C#N)c(-c2cccc3ccccc23)c1 (stereo not drawn) [Example 57, 4-(((1-benzoyl4-piperidinyl)amino)(1-methyl-1H-imidazol-5-yl)methyl)-2-(1-naphthyl)benzonitrile dihydrochloride] | 100 | –
17 | Cn1cncc1C(NCc1ccc(C(N)=O)cc1)c1ccc(C#N)c(-c2cccc3ccccc23)c1 (stereo not drawn) [Example 58, 4-((((4-cyano-3-(1-naphthyl)phenyl)(1-methyl-1H-imidazol-5-yl)methyl)amino)methyl)benzamide dihydrochloride] | 100 | –
18 | Cl.Cn1cncc1C(OCc1ccc([N+](=O)[O-])cc1)c1ccc(C#N)c(-c2cccc3ccccc23)c1 (stereo not drawn) [Example 59, 4-((1-methyl-1H-imidazol-5-yl)((4-nitrobenzyl)oxy)methyl)-2-(1,1-naphthyl)benzonitrile hydrochloride] | – | 100
19 | Cn1cncc1C(OCc1ccc(C#N)cc1)c1ccc(C#N)c(I)c1 (stereo not drawn) [Example 60, 4-(((4-cyanobenzyl)oxy)(1-methyl-1H-imidazol-5-yl)methyl)-2-iodobenzonitrile hydrochloride] | 96 | –
20 | Cn1cncc1C(OCc1ccc(C#N)c(Cl)c1)c1ccc(C#N)c(-c2cccc3ccccc23)c1 (stereo not drawn) [Example 61, 4-(((3-chloro-4-cyanobenzyl)oxy)(1-methyl-1H-imidazol-5-yl)methyl)-2-(1-naphthyl)benzonitrile hydrochloride] | 100 | –
21 | Cn1cncc1C(SCc1ccc(C#N)cc1)c1ccc(C#N)c(-c2cccc3ccccc23)c1 (stereo not drawn) [Example 62, 4-(((4-cyanobenzyl)sulfanyl)(1-methyl-1H-imidazol-5-yl)methyl)-2-(1-naphthyl)benzonitrile hydrochloride] | 100 | –
22 | Cn1cncc1C(OCc1ccc(C#N)c(I)c1)c1ccc(C#N)c(-c2cccc3ccccc23)c1 (stereo not drawn) [Example 63, 4-(((4-cyano-3-iodobenzyl)oxy)(1-methyl-1H-imidazol-5-yl)methyl)-2-(1-naphthyl)benzonitrile hydrochloride] | 100 | –
23 | COC(=O)c1ccc(COC(c2ccc(C#N)c(-c3cccc4ccccc34)c2)c2cncn2C)cc1 (stereo not drawn) [Example 64, methyl 4-(((4-cyano-3-(1-naphthyl)phenyl)(1-methyl-1H-imidazol-5-yl)methoxy)methyl)benzoate hydrochloride] | 100 | –
24 | Cn1cncc1C(OCc1ccc(C(F)(F)F)cc1)c1ccc(C#N)c(-c2cccc3ccccc23)c1 (stereo not drawn) [Example 65, 4-((1-methyl-1H-imidazol-5-yl)((4-(trifluoromethyl)benzyl)oxy)methyl)-2-(1-naphthyl)benzonitrile hydrochloride] | 100 | –
